Data reported in paper PMC3473359, “Formation of a heterooctameric complex between aspartate α-decarboxylase and its cognate activating factor, PanZ, is CoA-dependent” (Biochemical and Biophysical Research Communications, 2012).

Assays:
[1] = biological target: T1, PanZ (Escherichia coli, UniProt P37613); assay: isothermal titration calorimetry; format: binding; details: pH 7.4, 25 °C; sample contains copurified CoA
T1 construct: His-tagged PanZ from pCA24N(-GFP)-his-panZ, expressed in E. coli delta-panD delta-panZ (DE3); Ni-NTA and Superdex 75; monomer; copurifies partly with CoA
T1 sequence (P37613 1-127): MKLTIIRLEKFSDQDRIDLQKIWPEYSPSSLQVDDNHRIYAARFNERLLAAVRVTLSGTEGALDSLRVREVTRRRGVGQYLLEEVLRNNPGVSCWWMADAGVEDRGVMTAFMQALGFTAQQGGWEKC

[2] = biological target: T1, PanZ; assay: isothermal titration calorimetry; format: binding
Text: isothermal titration calorimetry on PanZ

With CC(=O)SCCNC(=O)CCNC(=O)[C@H](O)C(C)(C)COP(=O)(O)OP(=O)(O)OC[C@H]1O[C@@H](n2cnc3c(N)ncnc32)[C@H](O)[C@@H]1OP(=O)(O)O [acetyl CoA] the isothermal titration calorimetry [1] was “titration of CoA and AcCoA into PanZ showed binding”.

For CC(C)(COP(=O)(O)OP(=O)(O)OC[C@H]1O[C@@H](n2cnc3c(N)ncnc32)[C@H](O)[C@@H]1OP(=O)(O)O)[C@@H](O)C(=O)NCCC(=O)NCCS [CoA], the Kd [2] was 1.95 ± 0.16 µM.
